Peptide text beside a SMILES is read from it.
System: 3T3-L1 Adipocytes
Test: Free fatty acid levels in cultured mouse 3T3-L1 adipocytes, isoproterenol stimulated (Example 2)
Format: cell-based
Settings: test peptides 25 μM; isoproterenol 1 nM
Procedure, shortened: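 3T3-L1 cells differentiated 12–17 days into adipocytes, then exposed to test peptides at 25 μM final for 18–20 h, then 1 h, then 3 h with isoproterenol (1 nM) at 37 °C. Free fatty acids in the medium measured colorimetrically at 540 nm, corrected for untreated background and expressed relative to isoproterenol-only cells.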

| Compound | Free Fatty Acid Levels in 3T3-L1 Adipocytes Expressed as a Percent of Isoproterenol Control: Percent of Control Value |
| --- | --- |
| CC[C@H](C)[C@H](NC(=O)[C@H](Cc1ccc(O)cc1)NC(=O)CNC(=O)[C@H](CCSC)NC(=O)[C@H](CCC(=O)O)NC(=O)[C@H](CCC(N)=O)NC(=O)[C@H](Cc1c[nH]c2ccccc12)NC(=O)[C@H](CCCNC(=N)N)NC(=O)[C@H](CCSC)NC(C)=O)C(=O)N[C@@H](Cc1ccccc1)C(=O)N[C@@H](Cc1ccc(O)cc1)C(=O)N1CCC[C@H]1C(=O)N[C@@H](CCCNC(=N)N)C(=O)N[C@H](C)C(=O)N[C@@H](CC(C)C)C(=O)N[C@@H](CCCNC(=N)N)C(N)=O [compound 165] (HELM PEPTIDE1{[ac].M.R.W.Q.E.M.G.Y.I.F.Y.P.R.[dA].L.R.[am]}$$$$V2.0) | 82.0% |
| CC[C@H](C)[C@H](NC(=O)[C@H](Cc1ccc(O)cc1)NC(=O)CNC(=O)[C@H](CCSC)NC(=O)[C@H](CCC(=O)O)NC(=O)[C@H](CCC(N)=O)NC(=O)[C@H](Cc1c[nH]c2ccccc12)NC(=O)[C@H](CCCNC(=N)N)NC(=O)[C@H](CCSC)NC(C)=O)C(=O)N[C@@H](Cc1ccccc1)C(=O)N[C@@H](Cc1ccc(O)cc1)C(=O)N1CCC[C@H]1C(=O)N[C@@H](CCCNC(=N)N)C(=O)N[C@@H](CCCCN)C(=O)N[C@H](C)C(=O)N[C@@H](CCCNC(=N)N)C(N)=O [compound 166] (HELM PEPTIDE1{[ac].M.R.W.Q.E.M.G.Y.I.F.Y.P.R.K.[dA].R.[am]}$$$$V2.0) | 78.0% |
| CC[C@H](C)[C@H](NC(=O)[C@H](Cc1ccc(O)cc1)NC(=O)CNC(=O)[C@H](CCSC)NC(=O)[C@H](CCC(=O)O)NC(=O)[C@H](CCC(N)=O)NC(=O)[C@H](Cc1c[nH]c2ccccc12)NC(=O)[C@H](CCCNC(=N)N)NC(=O)[C@H](CCSC)NC(C)=O)C(=O)N[C@@H](Cc1ccccc1)C(=O)N[C@@H](Cc1ccc(O)cc1)C(=O)N1CCC[C@H]1C(=O)N[C@@H](CCCNC(=N)N)C(=O)N[C@@H](CCCCN)C(=O)N[C@@H](CC(C)C)C(=O)N[C@H](C)C(N)=O [compound 167] (HELM PEPTIDE1{[ac].M.R.W.Q.E.M.G.Y.I.F.Y.P.R.K.L.[dA].[am]}$$$$V2.0) | 70.9% |
| CC[C@H](C)[C@H](NC(=O)[C@H](Cc1ccc(O)cc1)NC(=O)CNC(=O)[C@H](CCSC)NC(=O)[C@H](CCC(=O)O)NC(=O)[C@H](CCC(N)=O)NC(=O)[C@H](Cc1c[nH]c2ccccc12)NC(=O)[C@H](CCCNC(=N)N)NC(=O)[C@@H](N)CCSC)C(=O)N[C@@H](Cc1ccccc1)C(=O)N[C@@H](Cc1ccc(O)cc1)C(=O)N1CCC[C@H]1C(=O)N[C@@H](CCCNC(=N)N)C(=O)N[C@@H](CCCCN)C(=O)NC(CC)(CC)C(=O)N[C@@H](CCCNC(=N)N)C(=O)O [compound 198] (HELM PEPTIDE1{M.R.W.Q.E.M.G.Y.I.F.Y.P.R.K.[CCC(CC)(N[*:1])C(=O)[*:2]].R}$$$$V2.0) | 69.2% |
| CC[C@H](C)[C@H](NC(=O)[C@H](Cc1ccc(O)cc1)NC(=O)CNC(=O)[C@H](CCSC)NC(=O)[C@H](CCC(=O)O)NC(=O)[C@H](CCC(N)=O)NC(=O)[C@H](Cc1c[nH]c2ccccc12)NC(=O)[C@H](CCCNC(=N)N)NC(=O)[C@H](CCSC)NC(C)=O)C(=O)N[C@@H](Cc1ccccc1)C(=O)N[C@@H](Cc1ccc(O)cc1)C(=O)N1CCC[C@H]1C(=O)N[C@@H](CCCNC(=N)N)C(=O)N[C@@H](CCCCN)C(=O)NC(CC)(CC)C(=O)N[C@@H](CCCNC(=N)N)C(=O)O [compound 199] (HELM PEPTIDE1{[ac].M.R.W.Q.E.M.G.Y.I.F.Y.P.R.K.[CCC(CC)(N[*:1])C(=O)[*:2]].R}$$$$V2.0) | 48.0% |
| CC[C@H](C)[C@H](NC(=O)[C@H](Cc1ccc(O)cc1)NC(=O)CNC(=O)[C@H](CCSC)NC(=O)[C@H](CCC(=O)O)NC(=O)[C@H](CCC(N)=O)NC(=O)[C@H](Cc1c[nH]c2ccccc12)NC(=O)[C@H](CCCNC(=N)N)NC(=O)[C@@H](N)CCSC)C(=O)N[C@@H](Cc1ccccc1)C(=O)N[C@@H](Cc1ccc(O)cc1)C(=O)N1CCC[C@H]1C(=O)N[C@@H](CCCNC(=N)N)C(=O)N[C@@H](CCCCN)C(=O)NC(CC)(CC)C(=O)N[C@@H](CCCNC(=N)N)C(N)=O [compound 200] (HELM PEPTIDE1{M.R.W.Q.E.M.G.Y.I.F.Y.P.R.K.[CCC(CC)(N[*:1])C(=O)[*:2]].R.[am]}$$$$V2.0) | 80.2% |
| CC[C@H](C)[C@H](NC(=O)[C@H](Cc1ccc(O)cc1)NC(=O)CNC(=O)[C@H](CCSC)NC(=O)[C@H](CCC(=O)O)NC(=O)[C@H](CCC(N)=O)NC(=O)[C@H](Cc1c[nH]c2ccccc12)NC(=O)[C@H](CCCNC(=N)N)NC(=O)[C@H](CCSC)NC(C)=O)C(=O)N[C@@H](Cc1ccccc1)C(=O)N[C@@H](Cc1ccc(O)cc1)C(=O)N1CCC[C@H]1C(=O)N[C@@H](CCCNC(=N)N)C(=O)N[C@@H](CCCCN)C(=O)NC(CC)(CC)C(=O)N[C@@H](CCCNC(=N)N)C(N)=O [compound 201] (HELM PEPTIDE1{[ac].M.R.W.Q.E.M.G.Y.I.F.Y.P.R.K.[CCC(CC)(N[*:1])C(=O)[*:2]].R.[am]}$$$$V2.0) | 92.8% |
| CC[C@H](C)[C@@H]1NC(=O)[C@H](Cc2ccc(O)cc2)NC(=O)CNC(=O)[C@@H](NC(=O)[C@H](CCC(=O)O)NC(=O)[C@H](CCC(N)=O)NC(=O)[C@H](Cc2c[nH]c3ccccc23)NC(=O)[C@H](CCCNC(=N)N)NC(=O)[C@@H](N)CCSC)CSSC[C@@H](C(=O)N[C@@H](CCCNC(=N)N)C(=O)N[C@@H](CCCCN)C(=O)N[C@@H](CC(C)C)C(=O)N[C@@H](CCCNC(=N)N)C(=O)O)NC(=O)[C@H](Cc2ccc(O)cc2)NC(=O)[C@H](Cc2ccccc2)NC1=O [compound 220] (HELM PEPTIDE1{M.R.W.Q.E.C.G.Y.I.F.Y.C.R.K.L.R}$PEPTIDE1,PEPTIDE1,6:R3-12:R3$$$V2.0) | 70.5% |
| CC[C@H](C)[C@@H]1NC(=O)[C@H](Cc2ccc(O)cc2)NC(=O)CNC(=O)[C@@H](NC(=O)[C@H](CCC(=O)O)NC(=O)[C@H](CCC(N)=O)NC(=O)[C@H](Cc2c[nH]c3ccccc23)NC(=O)[C@H](CCCNC(=N)N)NC(=O)[C@@H](N)CCSC)CCC(=O)NCCCC[C@@H](C(=O)N[C@@H](CCCNC(=N)N)C(=O)N[C@@H](CCCCN)C(=O)N[C@@H](CC(C)C)C(=O)N[C@@H](CCCNC(=N)N)C(=O)O)NC(=O)[C@H](Cc2ccc(O)cc2)NC(=O)[C@H](Cc2ccccc2)NC1=O [compound 221] (HELM PEPTIDE1{M.R.W.Q.E.E.G.Y.I.F.Y.K.R.K.L.R}$PEPTIDE1,PEPTIDE1,6:R3-12:R3$$$V2.0) | 25.5% |
| CC[C@H](C)[C@@H]1NC(=O)[C@H](Cc2ccc(O)cc2)NC(=O)CNC(=O)[C@H](CCSC)NC(=O)[C@H](CCC(=O)O)NC(=O)[C@@H](NC(=O)[C@H](Cc2c[nH]c3ccccc23)NC(=O)[C@H](CCCNC(=N)N)NC(=O)[C@@H](N)CCSC)CCC(=O)NCCCC[C@@H](C(=O)N[C@@H](CCCNC(=N)N)C(=O)N[C@@H](CCCCN)C(=O)N[C@@H](CC(C)C)C(=O)N[C@@H](CCCNC(=N)N)C(=O)O)NC(=O)[C@H](Cc2ccc(O)cc2)NC(=O)[C@H](Cc2ccccc2)NC1=O [compound 223] (HELM PEPTIDE1{M.R.W.E.E.M.G.Y.I.F.Y.K.R.K.L.R}$PEPTIDE1,PEPTIDE1,4:R3-12:R3$$$V2.0) | 64.6% |
| CC[C@H](C)[C@@H]1NC(=O)[C@H](Cc2ccc(O)cc2)NC(=O)CNC(=O)[C@H](CCSC)NC(=O)[C@@H](NC(=O)[C@H](CCC(N)=O)NC(=O)[C@H](Cc2c[nH]c3ccccc23)NC(=O)[C@H](CCCNC(=N)N)NC(=O)[C@@H](N)CCSC)CCC(=O)NCCCC[C@@H](C(=O)N[C@@H](CCCNC(=N)N)C(=O)N[C@@H](CCCCN)C(=O)N[C@@H](CC(C)C)C(=O)N[C@@H](CCCNC(=N)N)C(=O)O)NC(=O)[C@H](Cc2ccc(O)cc2)NC(=O)[C@H](Cc2ccccc2)NC1=O [compound 224] (HELM PEPTIDE1{M.R.W.Q.E.M.G.Y.I.F.Y.K.R.K.L.R}$PEPTIDE1,PEPTIDE1,5:R3-12:R3$$$V2.0) | 56.2% |
| CC[C@H](C)[C@@H]1NC(=O)[C@H](Cc2ccc(O)cc2)NC(=O)CNC(=O)[C@@H](NC(=O)[C@H](CCC(=O)O)NC(=O)[C@H](CCC(N)=O)NC(=O)[C@H](Cc2c[nH]c3ccccc23)NC(=O)[C@H](CCCNC(=N)N)NC(=O)[C@H](CCSC)NC(C)=O)CSSC[C@@H](C(=O)N[C@@H](CCCNC(=N)N)C(=O)N[C@@H](CCCCN)C(=O)N[C@@H](CC(C)C)C(=O)N[C@@H](CCCNC(=N)N)C(N)=O)NC(=O)[C@H](Cc2ccc(O)cc2)NC(=O)[C@H](Cc2ccccc2)NC1=O [compound 225] (HELM PEPTIDE1{[ac].M.R.W.Q.E.C.G.Y.I.F.Y.C.R.K.L.R.[am]}$PEPTIDE1,PEPTIDE1,7:R3-13:R3$$$V2.0) | 97.0% |
| CC[C@H](C)[C@@H]1NC(=O)[C@H](Cc2ccc(O)cc2)NC(=O)CNC(=O)[C@@H](NC(=O)[C@H](CCC(=O)O)NC(=O)[C@H](CCC(N)=O)NC(=O)[C@H](Cc2c[nH]c3ccccc23)NC(=O)[C@H](CCCNC(=N)N)NC(=O)[C@H](CCSC)NC(C)=O)CCC(=O)NCCCC[C@@H](C(=O)N[C@@H](CCCNC(=N)N)C(=O)N[C@@H](CCCCN)C(=O)N[C@@H](CC(C)C)C(=O)N[C@@H](CCCNC(=N)N)C(N)=O)NC(=O)[C@H](Cc2ccc(O)cc2)NC(=O)[C@H](Cc2ccccc2)NC1=O [compound 226] (HELM PEPTIDE1{[ac].M.R.W.Q.E.E.G.Y.I.F.Y.K.R.K.L.R.[am]}$PEPTIDE1,PEPTIDE1,7:R3-13:R3$$$V2.0) | 79.8% |

— US11753445B2, “Therapeutic peptides” (COHBAR, INC., priority 2016, dated 2023)
